PubChem BioAssay (NCI)
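Here, GI50 denotes the concentration required for 50% inhibition of growth. TGI: total growth inhibition.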

Experiments:
Test in all cases: growth of human tumour cells (NCI), 384-well format
SR leukemia = tested on: SR leukemia
DU-145 prostate = tested on: DU-145 prostate
MALME-3M melanoma = tested on: MALME-3M melanoma
SW-620 colon = tested on: SW-620 colon
SK-MEL-28 melanoma = tested on: SK-MEL-28 melanoma
HS 578T breast = tested on: HS 578T breast
UACC-257 melanoma = tested on: UACC-257 melanoma
T-47D breast = tested on: T-47D breast
UO-31 renal = tested on: UO-31 renal
SF-268 CNS = tested on: SF-268 CNS
SNB-75 CNS = tested on: SNB-75 CNS
NCI-H322M lung = tested on: NCI-H322M lung
NCI-H23 lung = tested on: NCI-H23 lung
SK-MEL-5 melanoma = tested on: SK-MEL-5 melanoma
LOX IMVI melanoma = tested on: LOX IMVI melanoma
IGROV1 ovarian = tested on: IGROV1 ovarian
PC-3 prostate = tested on: PC-3 prostate
OVCAR-5 ovarian = tested on: OVCAR-5 ovarian
CAKI-1 renal = tested on: CAKI-1 renal
HCT-15 colon = tested on: HCT-15 colon
BT-549 breast = tested on: BT-549 breast
ACHN renal = tested on: ACHN renal
EKVX NSCLC = tested on: EKVX NSCLC
SNB-19 CNS = tested on: SNB-19 CNS
COLO 205 colon = tested on: COLO 205 colon
OVCAR-8 ovarian = tested on: OVCAR-8 ovarian
NCI/ADR-RES ovarian = tested on: NCI/ADR-RES ovarian
MCF7 breast = tested on: MCF7 breast
U251 glioblastoma = tested on: U251 glioblastoma
NCI-H522 lung = tested on: NCI-H522 lung
CCRF-CEM leukemia = tested on: CCRF-CEM leukemia
M14 melanoma = tested on: M14 melanoma
UACC-62 melanoma = tested on: UACC-62 melanoma
OVCAR-3 ovarian = tested on: OVCAR-3 ovarian
MOLT-4 leukemia = tested on: MOLT-4 leukemia
HL-60(TB) leukemia = tested on: HL-60(TB) leukemia
MDA-MB-435 melanoma = tested on: MDA-MB-435 melanoma
NCI-H460 NSCLC = tested on: NCI-H460 NSCLC
OVCAR-4 ovarian = tested on: OVCAR-4 ovarian
KM12 colon = tested on: KM12 colon
HOP-92 NSCLC = tested on: HOP-92 NSCLC
SF-295 CNS = tested on: SF-295 CNS
HT29 colon = tested on: HT29 colon
A549 NSCLC = tested on: A549 NSCLC
MDA-MB-468 breast = tested on: MDA-MB-468 breast
A498 renal = tested on: A498 renal
MDA-MB-231 breast = tested on: MDA-MB-231 breast
TK-10 renal = tested on: TK-10 renal
NCI-H226 lung = tested on: NCI-H226 lung
HOP-62 NSCLC = tested on: HOP-62 NSCLC
786-0 renal = tested on: 786-0 renal
K-562 leukemia = tested on: K-562 leukemia
SF-539 CNS = tested on: SF-539 CNS
RXF 393 renal = tested on: RXF 393 renal
RPMI-8226 leukemia = tested on: RPMI-8226 leukemia
HCC-2998 colon = tested on: HCC-2998 colon
SK-OV-3 ovarian = tested on: SK-OV-3 ovarian
SN12C renal = tested on: SN12C renal

For CNC(=O)c1cccc(-c2ccc3c(N4CCOC[C@@H]4C)nc(N4CCOC[C@@H]4C)nc3n2)c1, the GI50 (SR leukemia) was 0.0536 µM, the TGI (SR leukemia) was 0.239 µM and the GI50 (DU-145 prostate) was 0.341 µM. For the same compound, the GI50 (MALME-3M melanoma) was 0.019 µM, the TGI (MALME-3M melanoma) was 0.161 µM and the GI50 (SW-620 colon) was 0.635 µM. The GI50 (SK-MEL-28 melanoma) was 0.131 µM, the TGI (SK-MEL-28 melanoma) was 1.17 µM and the GI50 (HS 578T breast) was 0.105 µM. The TGI (HS 578T breast) was 0.381 µM, the GI50 (UACC-257 melanoma) was 0.218 µM and the TGI (UACC-257 melanoma) was 0.958 µM. The GI50 (T-47D breast) was 0.0204 µM, the TGI (T-47D breast) was 0.116 µM and the GI50 (UO-31 renal) was 0.505 µM. For the same compound, the TGI (UO-31 renal) was 7.86 µM, the GI50 (SF-268 CNS) was 0.433 µM and the GI50 (SNB-75 CNS) was 0.121 µM. For the same compound, the GI50 (NCI-H322M lung) was 0.13 µM, the GI50 (NCI-H23 lung) was 0.314 µM and the GI50 (SK-MEL-5 melanoma) was 0.062 µM. It also gave a TGI (SK-MEL-5 melanoma) of 0.295 µM, a GI50 (LOX IMVI melanoma) of 0.298 µM and a TGI (LOX IMVI melanoma) of 1.78 µM. For the same compound, the GI50 (IGROV1 ovarian) was 0.0425 µM, the TGI (IGROV1 ovarian) was 0.284 µM and the GI50 (PC-3 prostate) was 0.0719 µM. For the same compound, the TGI (PC-3 prostate) was 8.3 µM, the GI50 (OVCAR-5 ovarian) was 0.139 µM and the GI50 (CAKI-1 renal) was 0.214 µM. It also gave a TGI (CAKI-1 renal) of 5.52 µM, a GI50 (HCT-15 colon) of 0.187 µM and a GI50 (BT-549 breast) of 0.213 µM. The TGI (BT-549 breast) was 1.36 µM, the GI50 (ACHN renal) was 0.162 µM and the GI50 (EKVX NSCLC) was 0.161 µM. For the same compound, the TGI (EKVX NSCLC) was 1.87 µM, the GI50 (SNB-19 CNS) was 2.33 µM and the GI50 (COLO 205 colon) was 0.154 µM. For the same compound, the GI50 (OVCAR-8 ovarian) was 0.37 µM, the GI50 (NCI/ADR-RES ovarian) was 0.534 µM and the GI50 (MCF7 breast) was 0.0597 µM. For the same compound, the GI50 (U251 glioblastoma) was 0.637 µM, the GI50 (NCI-H522 lung) was 0.0686 µM and the GI50 (CCRF-CEM leukemia) was 0.197 µM. It also gave a GI50 (M14 melanoma) of 0.143 µM, a GI50 (UACC-62 melanoma) of 0.152 µM and a TGI (UACC-62 melanoma) of 0.727 µM. The GI50 (OVCAR-3 ovarian) was 0.257 µM, the GI50 (MOLT-4 leukemia) was 0.0987 µM and the TGI (MOLT-4 leukemia) was 1.04 µM. It also gave a GI50 (HL-60(TB) leukemia) of 1.36 µM, a GI50 (MDA-MB-435 melanoma) of 0.28 µM and a TGI (MDA-MB-435 melanoma) of 1.61 µM. The GI50 (NCI-H460 NSCLC) was 0.0379 µM, the GI50 (OVCAR-4 ovarian) was 0.111 µM and the TGI (OVCAR-4 ovarian) was 0.595 µM. It also gave a GI50 (KM12 colon) of 0.156 µM, a GI50 (HOP-92 NSCLC) of 0.0972 µM and a TGI (HOP-92 NSCLC) of 1.66 µM. For the same compound, the GI50 (SF-295 CNS) was 0.112 µM, the TGI (SF-295 CNS) was 0.545 µM and the GI50 (HT29 colon) was 0.546 µM. The GI50 (A549 NSCLC) was 0.152 µM, the GI50 (MDA-MB-468 breast) was 0.0332 µM and the TGI (MDA-MB-468 breast) was 0.277 µM. The GI50 (A498 renal) was 0.0329 µM, the TGI (A498 renal) was 0.374 µM and the GI50 (MDA-MB-231 breast) was 0.207 µM. The GI50 (TK-10 renal) was 0.26 µM, the TGI (TK-10 renal) was 3.83 µM and the GI50 (NCI-H226 lung) was 0.182 µM. It also gave a TGI (NCI-H226 lung) of 0.857 µM, a GI50 (HOP-62 NSCLC) of 0.269 µM and a GI50 ([…]-0 renal) of 0.348 µM. For the same compound, the GI50 (K-562 leukemia) was 0.48 µM, the GI50 (SF-539 CNS) was 0.305 µM and the GI50 (RXF 393 renal) was 0.33 µM. The GI50 (RPMI-8226 leukemia) was 0.0128 µM, the TGI (RPMI-8226 leukemia) was 0.0401 µM and the GI50 (HCC-2998 colon) was 0.662 µM. For the same compound, the GI50 (SK-OV-3 ovarian) was 0.116 µM, the TGI (SK-OV-3 ovarian) was 1.58 µM and the GI50 (SN12C renal) was 0.142 µM. It also gave a TGI (SN12C renal) of 8.26 µM.
